Earlier results, collected in US20210220357A1, “1,3-THIAZOL-2-YL SUBSTITUTED BENZAMIDES FOR THE TREATMENT OF DISEASES ASSOCIATED WITH NERVE FIBER SENSITIZATION” (Bayer Aktiengesellschaft, priority 2018, published 2021).

Tested on: treated subjects
Conditions: Clinical Phase II trials, taste sensation via the tongue

COc1cc(C(C)C)c(Oc2cnc(N)nc2N)cc1S(N)(=O)=O [AF-219, 5-(2,4-diamino-pyrimidin-5-yloxy)-4-isopropyl-2-methoxy-benzenesulfonamide]
taste disturbances: taste disturbances
